Reference: ChEMBL document CHEMBL3822367, “Use of Photosensitizers in Semisolid Formulations for Microbial Photodynamic Inactivation” (2016)

System: Mycobacterium tuberculosis variant bovis BCG
Assay: Antimycobacterial activity against Mycobacterium bovis BCG Pasteur ATCC 35734 assessed as cell survival at 5 uM after 1 hr followed by irradiation with light at 60 to 100 J/cm'2
Assay type: functional, organism-based

VERTEPORFIN
Survival: 26%
